Experimental findings from patent US9617264B2, “2,7-diazaspiro[3.5]nonane compounds” (REMYND NV, priority 2014, dated 2017) are described below.

For one experiment, the system named is INS-1E cells. Description: Cytokine-induced apoptosis (caspase-3/7 activation, Caspase-Glo 3/7) in INS-1E rat insulinoma cells. The class given is cell-based. Conditions: cytokine mix (IFN-γ, IL-1, TNF-α), 24 hours, caspase 3/7 activity, read-out: CYT EC50. The text has this: The INS-1E cell line, a rat insulinoma cell line, has been characterized extensively. INS-1E cells respond to glucose by secreting insulin and, unlike most other immortalized n-cell lines, they do this in a consistent manner over time. The cells are sensitive to hyperglycemia-, free fatty acid (FFA)-, and cytokine-induced stress. Prolonged stress ultimately leads to induction of apoptotic pathways and, if stress is not counter-acted, to apoptosis. Caspase-3 and -7 play a central role downstream where various apoptotic pathways merge. As such, activation (i.e. cleavage) of these caspases forms a relevant primary read-out to evaluate protective activity of compounds against stress-induced apoptosis.
To evaluate the efficacy of different compounds to prevent induction of apoptosis, an in vitro screen was developed in which INS-1E cells were exposed to a cytokine mix (IFN-γ, 5 ng/ml; IL-1, 20 pg/ml; TNF-α, 0.25 ng/ml). The degree of induction of apoptosis was evaluated using a substrate for cleaved caspase-3 and -7, i.e. a proluminescent caspase-3/7 DEVD aminoluciferin substrate with a thermostable luciferase (Caspase-Glo® 3/7 assay; Promega, cat. G8092).
On day 0, INS-1E cells were plated in a white-walled 96-well microplate (Greiner, cat. 655098) at 20,000 cells per well in 100 μl complete medium (RPMI containing 11 mM glucose supplemented with 5% FCS, 100 IU/ml penicillin, 100 μg/ml streptomycin, 10 mM HEPES, 1 mM Sodium Pyruvate and 50 μM 2-Mercapto-ethanol). On day 2, 100 μl medium containing cytokines and compound dissolved in DMSO was added to the cells. Wells without cytokines containing DMSO and wells with cytokines and DMSO were included to evaluate the degree of caspase 3/7 activation by the cytokine mix. After 24 hours exposure to cytokines and/or compound, Caspase-Glo® 3/7 reagent was added to the cells and caspase activity was determined by measuring luminescence.
To evaluate compound efficacy, the “toxicity window” was calculated by subtracting caspase activity of wells without stressor from activity of wells with stressor but without compound. The amount of caspase activity in the latter wells was normalized to 1 and used as reference. Subsequently, caspase activity in the wells with stressor and varying concentrations of compound was calculated relative to the wells without compound. Plotting caspase activity vs the log 10 of the concentration of compound permitted calculation of the EC50 values for the compounds which typically lied between 0.0001 and 10 μM. Compounds with an EC50<10 μM were considered active.

The subject of the next experiment is M17_3SYN cells. The experiment can be described thus: Paraquat-induced cytotoxicity (LDH) in α-synuclein over-expressing M17_3SYN neuroblastoma cells. The class given is cell-based. Conditions: Homo sapiens, Neuroblastoma cell, 48 h, 6 mM Paraquat, 2 days, LDH toxicity inhibition, read-out: SYN EC50. The text has this: A α-synuclein expression plasmid was constructed by subcloning the NcoI/XhoI fragment from 212T-SYN(WT) (Griffioen et al., Biochem Biophys Acta (2006) 1762(3):312-318) containing the cDNA of human wild type α-synuclein correspondingly into a standard mammalian expression vector pcDNA3.1 resulting in plasmid pcDNA3.1-SYNwt. Plasmids pcDNA3.1 and pcDNA3.1-SYNwt were transfected into human neuroblastoma cells (BE-M17; ATCC No. CRL-2267™) using lipofectamine reagent and subsequently, independent clonal cell lines with the plasmids stably integrated into the genome were selected by antibiotic resistance selection (Geneticin (G418)), resulting in cell lines M17.pcDNA3 and M17_3SYN. Overexpression of α-synuclein in the M17_3SYN cell line was confirmed by Western blot analysis.
Due to the high levels of α-synuclein, M17_3SYN cells were sensitive to paraquat, a well-known risk factor Parkinson's disease and of synuclein-dependent neuronal degeneration. Cytotoxicity of cells was measured by quantification of lactate dehydrogenase (LDH) levels. In dead cells, LDH leaked out of the cells into the medium due to a loss of plasma-membrane integrity.
Three days preceding the experiment, primary pre-cultures of M17.pcDNA3 (as possible control) and M17_3SYN cells were prepared, starting from a stock culture, at a density of 20.000-40.000 cells/cm2 in culture medium (Opti-MEM® Reduced Serum Medium with Phenol Red (Invitrogen, Cat. 31985-047) supplemented with 10% FCS, 1 mM sodium pyruvate, 1×NEAA, 500 μg/ml G418 and 0.5× antibiotic/antimycotic (ABAM)). 3 days later these primary pre-cultures were used as a starting point to make secondary pre-cultures at a density of 50.000-100.000 cells/cm^2. At the day of the experiment these secondary precultures were diluted to ˜0.5·10^6 cells/ml in detection medium (Opti-MEM® Reduced-Serum Medium without Phenol Red (Invitrogen, Cat. 11085-021) supplemented with 10% FCS, 1 mM sodium pyruvate, 1×NEAA, 500 μg/ml G418 and 0.5×ABAM) and 60 μL of this suspension was dispensed per well into a 96-well microtiter plate. After 3 hours of incubation at 37° C./5% CO2 an equal volume of detection medium containing a final concentration of 6 mM Paraquat was added and subsequently incubated for 2 days at 37° C./5% CO2. Then LDH activity was determined using the Promega Cytotox 96 Non-Radioactive cytotoxicity assay (Promega, Cat. G1780), according to the manufacturer's instructions. Cytotoxicity was defined as the ratio of LDH relative to the total LDH in the cells and supernatant.
The assay described above using the M17_3SYN cell line allowed screening compounds for their ability to decrease cytotoxicity in PQ-challenged cells. Compounds of the invention were tested for their ability to decrease toxicity at different concentrations, ranging from low non-effective concentrations to high effective concentrations. Afterwards, a dose-dependent inhibition curve was used to calculate the EC50. A compound was considered to be active in this test when it inhibited toxicity by more than 20% relative to untreated M17_3SYN cells at a concentration of […] or lower.

Structures are written as SMILES.

Take `O=S(=O)(c1cccs1)N1CCC2(CC1)CN(c1nc(Cc3ccc(F)cc3)ns1)C2` [Cmpd092, 3-(4-Fluorobenzyl)-5-(7-(thiophen-2-ylsulfonyl)-2,7-diazaspiro[3.5]nonan-2-yl)-1,2,4-thiadiazole]: the half-maximal effective concentration (EC50) (as a rule, the concentration needed to bring the measured effect to its halfway point) stood at 0.018 µM with INS-1E cells and 0.615 µM with M17_3SYN cells.

`COc1ccc(S(=O)(=O)N2CCC3(CC2)CN(C(=O)C(C)(C)c2cccc(Cl)c2)C3)cc1` [Cmpd030, 2-(3-Chlorophenyl)-1-(7-((4-methoxyphenyl)sulfonyl)-2,7-diazaspiro[3.5]nonan-2-yl)-2-methylpropan-1-one]: the EC50 is 0.134 µM in the experiment with INS-1E cells and 0.005 µM with M17_3SYN cells.

Consider `CCC(C(=O)N1CC2(CCN(S(=O)(=O)c3ccc(OC)cc3)CC2)C1)c1ccccc1` (centres unmarked) [Cmpd011, 1-(7-((4-Methoxyphenyl)sulfonyl)-2,7-diazaspiro[3.5]nonan-2-yl)-2-phenylbutan-1-one], for which the concentration for a half-maximal effect (EC50) in the experiment with INS-1E cells was determined as 0.248 µM; in the experiment with M17_3SYN cells, 0.0664 µM.

As to `COc1ccc(S(=O)(=O)N2CCC3(CC2)CN(C(=O)CCc2ccc(F)cc2)C3)cc1` [Cmpd015, 3-(4-Fluorophenyl)-1-(7-((4-methoxyphenyl)sulfonyl)-2,7-diazaspiro[3.5]nonan-2-yl)propan-1-one], the concentration for a half-maximal effect (EC50) came to 0.031 µM with INS-1E cells and 0.535 µM with M17_3SYN cells.

Turning to `CS(=O)(=O)c1cccc(S(=O)(=O)N2CCC3(CC2)CN(c2nc(Cc4ccc(F)cc4)ns2)C3)c1` [Cmpd082, 3-(4-Fluorobenzyl)-5-(7-((3-(methylsulfonyl)phenyl)sulfonyl)-2,7-diazaspiro[3.5]nonan-2-yl)-1,2,4-thiadiazole], the 50% effective concentration (EC50) turned out to be 0.034 µM in the experiment with INS-1E cells and 0.477 µM in the experiment on M17_3SYN cells.

In the case of `COc1ccc(S(=O)(=O)N2CCC3(CC2)CN(c2nc(CC(F)(F)F)ns2)C3)cc1` [Cmpd031, 5-(7-((4-Methoxyphenyl)sulfonyl)-2,7-diazaspiro[3.5]nonan-2-yl)-3-(2,2,2-trifluoroethyl)-1,2,4-thiadiazole], the EC50 came to 0.149 µM with INS-1E cells and 0.121 µM in the experiment with M17_3SYN cells.

Turning to `COc1ccc(S(=O)(=O)N2CCC3(CC2)CN(C(=O)C(C)c2ccc(Cl)cc2)C3)cc1` (centres unmarked) [Cmpd026, 2-(4-Chlorophenyl)-1-(7-((4-methoxyphenyl)sulfonyl)-2,7-diazaspiro[3.5]nonan-2-yl)propan-1-one], the figures for the EC50 in the experiment with INS-1E cells and in the experiment on M17_3SYN cells were 0.088 µM and 0.131 µM, respectively.

As for `CC(=O)Nc1ccc(S(=O)(=O)N2CCC3(CC2)CN(c2nc(Cc4ccc(F)cc4)ns2)C3)cc1` [Cmpd058, N-(4-((2-(3-(4-fluorobenzyl)-1,2,4-thiadiazol-5-yl)-2,7-diazaspiro[3.5]nonan-7-yl)sulfonyl)phenyl)acetamide], the 50% effective concentration (EC50) in the experiment on INS-1E cells was 0.022 µM; with M17_3SYN cells, 0.29 µM.

With `COc1ccc(S(=O)(=O)N2CCC3(CC2)CN(C(=O)C2(c4ccccc4)CC2)C3)cc1` [Cmpd014, (7-((4-Methoxyphenyl)sulfonyl)-2,7-diazaspiro[3.5]nonan-2-yl)(1-phenylcyclopropyl)methanone], the EC50 was determined as 0.034 µM with INS-1E cells and 0.0568 µM in the experiment with M17_3SYN cells.

As for `COc1ccc(S(=O)(=O)N2CCC3(CC2)CN(S(=O)(=O)c2ccc(OC)cc2)C3)cc1` [Cmpd001, 2,7-Bis((4-methoxyphenyl)sulfonyl)-2,7-diazaspiro[3.5]nonane], the EC50 in the experiment with INS-1E cells stood at 0.201 µM; in the experiment on M17_3SYN cells, 0.0011 µM.

With `COc1ccc(S(=O)(=O)N2CCC3(CC2)CN(C(=O)C(C)c2cc(F)cc(F)c2)C3)cc1` (centres unmarked) [Cmpd029, 2-(3,5-Difluorophenyl)-1-(7-((4-methoxyphenyl)sulfonyl)-2,7-diazaspiro[3.5]nonan-2-yl)propan-1-one], the EC50 in the experiment with INS-1E cells came to 0.057 µM; in the experiment with M17_3SYN cells, 0.189 µM.

In the case of `COc1ccc(S(=O)(=O)N2CCC3(CC2)CN(C(=O)C(C)(C)c2ccccc2C)C3)cc1` [Cmpd020, 1-(7-((4-Methoxyphenyl)sulfonyl)-2,7-diazaspiro[3.5]nonan-2-yl)-2-methyl-2-(o-tolyl)propan-1-one], the EC50 in the experiment with INS-1E cells worked out at 0.043 µM; in the experiment on M17_3SYN cells, 0.0143 µM.

`COc1ccc(S(=O)(=O)N2CCC3(CC2)CN(C(=O)[C@H](c2ccc(F)cc2)C(C)C)C3)cc1` [Cmpd022, (S)-2-(4-fluorophenyl)-1-(7-((4-methoxyphenyl)sulfonyl)-2,7-diazaspiro[3.5]nonan-2-yl)-3-methylbutan-1-one]: the EC50 in the experiment on INS-1E cells turned out to be 0.108 µM; in the experiment with M17_3SYN cells it was 0.0287 µM.

In the case of `COc1ccc(S(=O)(=O)N2CCC3(CC2)CN(C(=O)C(C)c2ccccc2OC)C3)cc1` (centres unmarked) [Cmpd023, 2-(2-Methoxyphenyl)-1-(7-((4-methoxyphenyl)sulfonyl)-2,7-diazaspiro[3.5]nonan-2-yl)propan-1-one], the EC50 in the experiment on INS-1E cells was 0.019 µM; in the experiment with M17_3SYN cells, 0.039 µM.

For `COc1ccc(S(=O)(=O)N2CCC3(CC2)CN(C(=O)C(C)(C)c2ccc(Cl)cc2)C3)cc1` [Cmpd027, 2-(4-Chlorophenyl)-1-(7-((4-methoxyphenyl)sulfonyl)-2,7-diazaspiro[3.5]nonan-2-yl)-2-methylpropan-1-one], the values for the half-maximal effective concentration (EC50) with INS-1E cells and in the experiment on M17_3SYN cells were 0.181 µM and 0.0148 µM, respectively.

In the case of `COc1ccc(S(=O)(=O)N2CCC3(CC2)CN(C(=O)C(C)(O)c2ccccn2)C3)cc1` (centres unmarked) [Cmpd018, 2-Hydroxy-1-(7-((4-methoxyphenyl)sulfonyl)-2,7-diazaspiro[3.5]nonan-2-yl)-2-(pyridin-2-yl)propan-1-one], the figures for the EC50 in the experiment with INS-1E cells and in the experiment with M17_3SYN cells were 0.058 µM and 0.241 µM, respectively.

As to `COc1ccc(S(=O)(=O)N2CCC3(CC2)CN(C(=O)C2CCCc4ccccc42)C3)cc1` (centres unmarked) [Cmpd025, (7-((4-Methoxyphenyl)sulfonyl)-2,7-diazaspiro[3.5]nonan-2-yl)(1,2,3,4-tetrahydronaphthalen-1-yl)methanone], the EC50 with INS-1E cells was 0.616 µM; with M17_3SYN cells, 0.0653 µM.

With `COc1ccc(S(=O)(=O)N2CCC3(CC2)CN(C(=O)C2(c4ccccc4)CCCC2)C3)cc1` [Cmpd028, (7-((4-Methoxyphenyl)sulfonyl)-2,7-diazaspiro[3.5]nonan-2-yl)(1-phenylcyclopentyl)methanone], the EC50 in the experiment on INS-1E cells is 0.029 µM; with M17_3SYN cells it was 0.022 µM.

Regarding `COc1ccc(C(C)C(=O)N2CC3(CCN(S(=O)(=O)c4ccc(OC)cc4)CC3)C2)cc1` (centres unmarked) [Cmpd019, 2-(4-Methoxyphenyl)-1-(7-((4-methoxyphenyl)sulfonyl)-2,7-diazaspiro[3.5]nonan-2-yl)propan-1-one], the EC50 came to 0.054 µM with INS-1E cells and 0.0953 µM with M17_3SYN cells.
